Data on 25 compounds can be found in ChEMBL document CHEMBL1146642, “5-Alkyl-2-[(aryl and alkyloxylcarbonylmethyl)thio]-6-(1-naphthylmethyl) pyrimidin-4(3H)-ones as an unique HIV reverse transcriptase inhibitors of S-DABO series” (Bioorg Med Chem Lett, 2004).

In test [1] the test system is MT4. Put plainly: Cytotoxic concentration that reduces the MT-4 cell viability by 50%. It counts as functional. Conditions: Homo sapiens; call rule not given here.
Test [2] deals with MT4. The test can be described thus: Concentration required to protect the cell against HIV-2 strain ROD viral cytopathogenicity by 50% in MT-4 cells. The class given is functional, cell-based, Human immunodeficiency virus 2. As to conditions: Homo sapiens. (In general: Cytopathic effects are the visible damage that an infection or toxin causes in cultured cells.)
The subject of test [3] is MT4. The test can be described thus: Concentration required to protect the cell against SO561945 viral cytopathogenicity by 50% in MT-4 cells. It counts as functional, cell-based. Conditions: Homo sapiens.
Test [4] has as its system MT4. The test can be described thus: Concentration required to protect the cell against HIV-2 strain ROD viral cytopathogenicity by 50% in MT-4 cells; NA denotes not active. It counts as functional, cell-based, Homo sapiens.

What is called CC50 is the concentration at which the toxic effect on the cells reaches its halfway point. For orientation: IC50 means the concentration needed to halve the response being measured. A higher IC50 goes with a need for much substance. `CC(=O)CSc1nc(O)c(C)c(Cc2cccc3ccccc23)n1` returned a CC50 with MT4 [1] of 85 µM. In addition, the half-maximal inhibitory concentration (IC50) in the test with MT4 [2] is at least 84.9 µM.
The compound `Cc1c(O)nc(SCC(=O)c2ccc(Cl)cc2)nc1Cc1cccc2ccccc12` registered a CC50 in the test with MT4 [1] of at least 198 µM. For the same compound, in the test with MT4 [2], the IC50 was found to be 19.8 µM.
As to `CCc1c(O)nc(SCC(=O)c2ccc(F)cc2)nc1Cc1cccc2ccccc12`, in the test with MT4 [1], the cytotoxic concentration (CC50) was at least 240 µM. Further, the IC50 in the test with MT4 [2] amounted to 16.3 µM.
`COC(=O)CSc1nc(O)c(C(C)C)c(Cc2cccc3ccccc23)n1` had a CC50 in the test with MT4 [1] of 179 µM. For the same compound, in the test with MT4 [2], the IC50 is over 179 µM.
`COc1ccc(C(=O)CSc2nc(O)c(C)c(Cc3cccc4ccccc34)n2)cc1`: the cytotoxic concentration (CC50) with MT4 [1] is over 290 µM. The IC50 with MT4 [2] was at least 0.42 µM.
The matching figures for `COC(=O)CSc1nc(O)c(C)c(Cc2cccc3ccccc23)n1`: at least 296 µM and at least 296 µM.
The corresponding values for `Cc1ccc(C(=O)CSc2nc(O)c(C(C)C)c(Cc3cccc4ccccc34)n2)cc1` are 225 µM and at least 225 µM.
The corresponding values for `COc1ccc(C(=O)CSc2nc(Cc3cccc4ccccc34)c(C(C)C)c(=O)[nH]2)cc1` are at least 203 µM and 13.4 µM.
As to `CCc1c(O)nc(SCC(=O)c2ccc(Cl)cc2)nc1Cc1cccc2ccccc12`, the cytotoxic concentration (CC50) with MT4 [1] is 56 µM. Further, the IC50 in the test on MT4 [2] is at least 0.26 µM.
The matching figures for `CCOC(=O)CSc1nc(O)c(C)c(Cc2cccc3ccccc23)n1`: at least 287 µM and at least 293 µM.
In turn, `Cc1ccc(C(=O)CSc2nc(O)c(C(C)C)c(Cc3cccc4ccccc34)n2)c(C)c1` yielded a CC50 in the test with MT4 [1] of 27 µM. 4 µM corresponded to half-maximal inhibition with MT4 [2] (IC50).
`CCc1c(O)nc(SCC(=O)OC)nc1Cc1cccc2ccccc12`: the CC50 with MT4 [1] was at least 196 µM. Moreover, in the test on MT4 [2], the IC50 is at least 196 µM.
The compound `Cc1c(O)nc(SCC(=O)c2ccc(F)cc2)nc1Cc1cccc2ccccc12` came in with a CC50 with MT4 [1] of at least 275 µM. The IC50 in the test with MT4 [2] is at least 275 µM.
In the test with MT4 [1], `CC(C)c1c(O)nc(SCC(=O)c2ccc(Cl)cc2)nc1Cc1cccc2ccccc12` had a CC50 of over 270 µM. In the test with MT4 [2], this compound registered an IC50 of over 270 µM.
`CCOC(=O)CSc1nc(O)c(C(C)C)c(Cc2cccc3ccccc23)n1` showed a CC50 in the test on MT4 [1] of 175 µM. In the test on MT4 [2], this compound had a 50% inhibitory concentration (IC50) of at least 41.1 µM.
The matching figures for `CCc1c(O)nc(SCC(=O)c2ccc(C)cc2)nc1Cc1cccc2ccccc12`: 6 µM and at least 1.25 µM.
As to `Cc1ccc(C(=O)CSc2nc(O)c(C)c(Cc3cccc4ccccc34)n2)cc1`, the IC50 in the test with MT4 [3] is at least 251 µM; with MT4 [2] it was at least 13.6 µM. In the test with MT4 [1], this compound returned a CC50 of at least 251 µM.
For the compound `CC(=O)CSc1nc(O)c(C(C)C)c(Cc2cccc3ccccc23)n1`, in the test with MT4 [1], the CC50 was determined as 43 µM. In the test on MT4 [2], this compound returned an IC50 of over 43.1 µM.
As to `CC(C)c1c(O)nc(SCC(=O)c2ccc(F)cc2)nc1Cc1cccc2ccccc12`, the half-maximal cytotoxic concentration (CC50) in the test on MT4 [1] was found to be 186 µM. In the test on MT4 [2], this compound had an IC50 of at least 32.2 µM.
In the case of `CC(C)c1c(O)nc(SCC(=O)c2ccccc2)nc1Cc1cccc2ccccc12`, the midpoint of cytotoxicity in the test on MT4 [1], the CC50, lay at 238 µM. For the same compound, in the test on MT4 [2], the IC50 worked out at 22 µM.
`CCc1c(O)nc(SCC(=O)c2ccc(OC)cc2)nc1Cc1cccc2ccccc12`: half-maximal cytotoxicity in the test on MT4 [1] (CC50) was put at 178 µM. Also, the IC50 in the test on MT4 [2] is at least 18.9 µM.
`O=c1[nH]cnc2c1ncn2[C@H]1CC[C@@H](CO)O1` [DIDANOSINE] returned a 50% cytotoxic concentration (CC50) with MT4 [1] of at least 529 µM. Also, the midpoint of inhibition in the test with MT4 [2], the IC50, lay at 2.71 µM.
With `O=C1Nc2ccc(Cl)cc2[C@@](C#CC2CC2)(C(F)(F)F)O1` [EFAVIRENZ], the IC50 result with MT4 [4] is reported as “Not Active”. This compound also came in with a CC50 in the test on MT4 [1] of 80 µM.
On to `Cc1c(Sc2ccccc2)n(COCCO)c(=O)[nH]c1=O` [HEPT], for which the IC50 result in the test on MT4 [4] is “Not Active”. This compound yielded a CC50 in the test with MT4 [1] of 405 µM.
Regarding `Cc1ccnc2c1NC(=O)c1cccnc1N2C1CC1` [NEVIRAPINE], the IC50 result in the test on MT4 [4] is on record as “Not Active”. Moreover, the CC50 in the test on MT4 [1] was over 200 µM.
